Source: patent US7981903B2, “2-[2-{phenylamino}-1H-pyrrolo[2,3-D]pyrimidin-4-yl)amino] benzamide derivatives as IGF-1R inhibitors for the treatment of cancer” (GlaxoSmithKline LLC, priority 2007, dated 2011)

Tests used:
Format in all cases: biochemical
human IGF1R (hIGF1R) = biological target: T1, human IGF1R (hIGF1R) (Homo sapiens, UniProt P08069); assay: TR-FRET kinase assay of purified hIGF1R; conditions: activated hIGF1R 0.5 nM, 10 μM ATP, values given as pIC50 category, read-out: IGF-1R pIC50 (converted)
T1 construct: containing amino acid residues 957-1367 of human IGF1R; made in house; host or cells: Sf9 cells (baculovirus)
T1 sequence (P08069 957-1367): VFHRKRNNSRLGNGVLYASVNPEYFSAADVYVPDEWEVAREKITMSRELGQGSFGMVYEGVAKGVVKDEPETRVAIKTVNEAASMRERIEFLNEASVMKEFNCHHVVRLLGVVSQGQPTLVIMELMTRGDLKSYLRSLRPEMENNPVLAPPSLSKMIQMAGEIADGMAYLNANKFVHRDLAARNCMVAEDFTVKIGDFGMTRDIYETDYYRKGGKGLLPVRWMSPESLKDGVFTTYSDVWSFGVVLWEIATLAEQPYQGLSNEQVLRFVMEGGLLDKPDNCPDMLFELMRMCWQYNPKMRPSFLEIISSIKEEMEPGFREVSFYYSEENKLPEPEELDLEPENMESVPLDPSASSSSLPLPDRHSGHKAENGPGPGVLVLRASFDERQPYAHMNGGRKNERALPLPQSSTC

human IR (hIR) = biological target: T2, human IR (hIR) (Homo sapiens, UniProt P06213); assay: TR-FRET kinase assay of purified hIR; conditions: activated hIR 0.5 nM, 10 μM ATP, values given as pIC50 category
T2 construct: containing amino acid residues 979-1382 of human IR; made in house; host or cells: Sf9 cells (baculovirus), same process as hIGF1R
T2 sequence (P06213 979-1382): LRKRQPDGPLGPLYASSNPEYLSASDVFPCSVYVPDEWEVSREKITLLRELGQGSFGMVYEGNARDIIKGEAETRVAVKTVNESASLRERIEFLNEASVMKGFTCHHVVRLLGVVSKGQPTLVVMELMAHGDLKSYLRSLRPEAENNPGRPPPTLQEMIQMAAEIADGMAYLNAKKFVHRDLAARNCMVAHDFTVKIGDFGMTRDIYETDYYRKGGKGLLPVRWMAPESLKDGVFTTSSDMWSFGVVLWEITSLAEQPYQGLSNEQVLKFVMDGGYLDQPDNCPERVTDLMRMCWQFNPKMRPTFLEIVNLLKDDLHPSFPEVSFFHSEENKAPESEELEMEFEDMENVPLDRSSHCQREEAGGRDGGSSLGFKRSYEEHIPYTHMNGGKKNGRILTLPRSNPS

ALK = ALK (Homo sapiens, UniProt Q9UM73); assay: ALK enzyme assay (HTRF); conditions: 0.25 nM ALK, 15.0 μM ATP, values given as pIC50 category
Chain of ALK (Q9UM73 19-1620): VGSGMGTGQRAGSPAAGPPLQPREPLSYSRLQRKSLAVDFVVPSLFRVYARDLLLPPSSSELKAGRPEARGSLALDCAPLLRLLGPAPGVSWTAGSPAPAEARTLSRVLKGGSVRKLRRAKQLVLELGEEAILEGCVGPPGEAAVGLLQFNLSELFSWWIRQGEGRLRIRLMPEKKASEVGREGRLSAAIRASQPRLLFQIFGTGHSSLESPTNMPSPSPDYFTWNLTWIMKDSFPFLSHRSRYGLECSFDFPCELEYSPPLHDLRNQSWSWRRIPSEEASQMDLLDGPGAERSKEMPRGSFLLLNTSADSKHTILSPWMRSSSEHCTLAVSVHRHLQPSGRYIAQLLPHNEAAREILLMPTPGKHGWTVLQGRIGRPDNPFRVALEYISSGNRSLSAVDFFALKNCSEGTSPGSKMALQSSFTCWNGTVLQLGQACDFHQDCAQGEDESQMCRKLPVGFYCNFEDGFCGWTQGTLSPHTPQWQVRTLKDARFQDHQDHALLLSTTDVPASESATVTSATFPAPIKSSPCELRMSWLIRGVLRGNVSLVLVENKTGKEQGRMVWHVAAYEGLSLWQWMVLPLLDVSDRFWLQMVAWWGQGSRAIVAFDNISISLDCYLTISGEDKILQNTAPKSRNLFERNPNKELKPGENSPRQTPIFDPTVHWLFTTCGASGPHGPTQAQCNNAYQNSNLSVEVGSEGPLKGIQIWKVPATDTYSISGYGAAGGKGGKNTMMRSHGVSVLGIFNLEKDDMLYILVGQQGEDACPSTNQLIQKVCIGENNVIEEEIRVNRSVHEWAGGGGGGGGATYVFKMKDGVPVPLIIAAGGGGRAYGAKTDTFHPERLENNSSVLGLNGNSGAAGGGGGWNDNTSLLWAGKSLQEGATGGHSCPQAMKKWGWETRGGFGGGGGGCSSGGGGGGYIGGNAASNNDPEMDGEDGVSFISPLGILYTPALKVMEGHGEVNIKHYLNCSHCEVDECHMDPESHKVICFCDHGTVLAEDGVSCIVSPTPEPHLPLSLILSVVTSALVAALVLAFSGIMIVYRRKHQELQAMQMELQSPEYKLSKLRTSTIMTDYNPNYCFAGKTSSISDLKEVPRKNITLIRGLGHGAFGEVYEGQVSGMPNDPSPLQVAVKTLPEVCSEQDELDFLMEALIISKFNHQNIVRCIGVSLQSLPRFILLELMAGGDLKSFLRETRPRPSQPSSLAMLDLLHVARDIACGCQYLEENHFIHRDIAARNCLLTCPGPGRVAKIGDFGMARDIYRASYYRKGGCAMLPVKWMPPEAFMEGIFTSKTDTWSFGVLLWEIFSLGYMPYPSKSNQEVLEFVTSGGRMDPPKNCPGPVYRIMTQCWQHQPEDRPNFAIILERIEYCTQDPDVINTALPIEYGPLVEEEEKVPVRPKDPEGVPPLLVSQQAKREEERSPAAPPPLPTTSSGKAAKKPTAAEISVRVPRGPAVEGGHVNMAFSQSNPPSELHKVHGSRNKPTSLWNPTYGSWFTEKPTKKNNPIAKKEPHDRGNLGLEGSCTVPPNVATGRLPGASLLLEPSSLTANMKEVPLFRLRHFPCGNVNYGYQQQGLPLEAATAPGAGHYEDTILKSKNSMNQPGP
In short: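 Isolated ALK phosphorylates a biotinylated tyrosine peptide, 120 min at 20° C; anti-phosphotyrosine Eu-cryptate/streptavidin-XL665 HTRF read after 60 min with EDTA-containing detection mix.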

IC50 (human IGF1R (hIGF1R)) | IC50 (human IR (hIR)) | IC50 (ALK) | Compound
0.251 to 1 nM | 0.251 to 1 nM | 0.251 to 1 nM | CCCN1CCC=C(c2ccc(Nc3nc(Nc4ccccc4C(N)=O)c4cc[nH]c4n3)c(OC)c2)C1 [Example 2, 2-[(2-{[2-(methyloxy)-4-(1-propyl-1,2,5,6-tetrahydro-3-pyridinyl)phenyl]amino}-1H-pyrrolo[2,3-d]pyrimidin-4-yl)amino]benzamide]
0.251 to 1 nM | 0.251 to 1 nM | 0.251 to 1 nM | CCCN1CCCC(c2ccc(Nc3nc(Nc4ccccc4C(N)=O)c4cc[nH]c4n3)c(OC)c2)C1 (stereo not drawn) [Example 3, 2-[(2-{[2-(methyloxy)-4-(1-propyl-3-piperidinyl)phenyl]amino}-1H-pyrrolo[2,3-d]pyrimidin-4-yl)amino]benzamide]
0.251 to 1 nM | 0.251 to 1 nM | 0.251 to 1 nM | COc1cc(N2CCN(C(C)C)CC2)ccc1Nc1nc(Nc2ccccc2C(N)=O)c2cc[nH]c2n1 [Example 7, 2-[(2-{[4-[4-(1-methylethyl)-1-piperazinyl]-2-(methyloxy)phenyl]amino}-1H-pyrrolo[2,3-d]pyrimidin-4-yl)amino]benzamide]
0.251 to 1 nM | 0.251 to 1 nM | 0.251 to 1 nM | COc1ccc(NC(=O)CN(C)C)cc1Nc1nc(Nc2ccccc2C(N)=O)c2cc[nH]c2n1 [Example 15, 2-[(2-{[5-[(N,N-dimethylglycyl)amino]-2-(methyloxy)phenyl]amino}-1H-pyrrolo[2,3-d]pyrimidin-4-yl)amino]benzamide]
0.251 to 1 nM | 0.251 to 1 nM | 0.251 to 1 nM | CN(C)CC(=O)Nc1ccc(OC(F)(F)F)c(Nc2nc(Nc3ccccc3C(N)=O)c3cc[nH]c3n2)c1 [Example 16, 2-{[2-({5-[(N,N-dimethylglycyl)amino]-2-[(trifluoromethyl)oxy]phenyl}amino)-1H-pyrrolo[2,3-d]pyrimidin-4-yl]amino}benzamide]
0.251 to 1 nM | 0.251 to 1 nM | 0.251 to 1 nM | CN(C)CC(=O)Nc1ccc(F)c(Nc2nc(Nc3ccccc3C(N)=O)c3cc[nH]c3n2)c1 [Example 17, 2-{[2-({5-[(N,N-dimethylglycyl)amino]-2-fluorophenyl}amino)-1H-pyrrolo[2,3-d]pyrimidin-4-yl]amino}benzamide]
5.01 to 200 nM | 1.26 to 3.98 nM | 1.26 to 3.98 nM | COc1ccc(C(N)=O)c(Nc2nc(Nc3ccc(N4CCOC[C@@H]4C)cc3OC)nc3[nH]ccc23)c1 [Example 39, 2-[(2-{[4-[(3S)-3-methyl-4-morpholinyl]-2-(methyloxy)phenyl]amino}-1H-pyrrolo[2,3-d]pyrimidin-4-yl)amino]-4-(methyloxy)benzamide]
0.251 to 1 nM |  | 0.251 to 1 nM | COc1cc2c(cc1Nc1nc(Nc3cccc(F)c3C(N)=O)c3cc[nH]c3n1)N(C(=O)CN(C)C)CC2 [Example 53, 2-[(2-{[1-(N,N-dimethylglycyl)-5-(methyloxy)-2,3-dihydro-1H-indol-6-yl]amino}-1H-pyrrolo[2,3-d]pyrimidin-4-yl)amino]-6-fluorobenzamide]
0.251 to 1 nM | 0.251 to 1 nM | 0.251 to 1 nM | CCCN1CCC=C(c2ccc(Nc3nc(Nc4ccc(F)cc4C(N)=O)c4cc[nH]c4n3)c(OC)c2)C1 [Example 54, 5-fluoro-2-[(2-{[2-(methyloxy)-4-(1-propyl-1,2,5,6-tetrahydro-3-pyridinyl)phenyl]amino}-1H-pyrrolo[2,3-d]pyrimidin-4-yl)amino]benzamide]
0.251 to 1 nM | 0.251 to 1 nM | 0.251 to 1 nM | COc1cc(C2CCN(C(C)C)CC2)ccc1Nc1nc(Nc2ccc(F)cc2C(N)=O)c2cc[nH]c2n1 [Example 58, 5-fluoro-2-[(2-{[4-[1-(1-methylethyl)-4-piperidinyl]-2-(methyloxy)phenyl]amino}-1H-pyrrolo[2,3-d]pyrimidin-4-yl)amino]benzamide]
0.251 to 1 nM | 1.26 to 3.98 nM | 0.251 to 1 nM | COc1cc(N2CCC(N3CCOCC3)CC2)ccc1Nc1nc(Nc2cc(F)ccc2C(N)=O)c2cc[nH]c2n1 [Example 78, 4-fluoro-2-{[2-({2-(methyloxy)-4-[4-(4-morpholinyl)-1-piperidinyl]phenyl}amino)-1H-pyrrolo[2,3-d]pyrimidin-4-yl]amino}benzamide]
0.251 to 1 nM | 0.251 to 1 nM | 1.26 to 3.98 nM | COc1cc(N2CCOC[C@@H]2C)ccc1Nc1nc(Nc2cc(F)ccc2C(N)=O)c2cc[nH]c2n1 [Example 84, 4-fluoro-2-[(2-{[4-[(3S)-3-methyl-4-morpholinyl]-2-(methyloxy)phenyl]amino}-1H-pyrrolo[2,3-d]pyrimidin-4-yl)amino]benzamide]
0.251 to 1 nM | 0.251 to 1 nM | 0.251 to 1 nM | COc1ccc(OC[C@@H](O)CN(C)C)cc1Nc1nc(Nc2cc(F)ccc2C(N)=O)c2cc[nH]c2n1 [Example 86, 2-[(2-{[5-{[(2S)-3-(dimethylamino)-2-hydroxypropyl]oxy}-2-(methyloxy)phenyl]amino}-1H-pyrrolo[2,3-d]pyrimidin-4-yl)amino]-4-fluorobenzamide]
0.251 to 1 nM | 0.251 to 1 nM | 0.251 to 1 nM | COc1cc(N2CCN(C(C)C)CC2)ccc1Nc1nc(Nc2cc(F)cc(F)c2C(N)=O)c2cc[nH]c2n1 [Example 89, 2,4-difluoro-6-[(2-{[4-[4-(1-methylethyl)-1-piperazinyl]-2-(methyloxy)phenyl]amino}-1H-pyrrolo[2,3-d]pyrimidin-4-yl)amino]benzamide]
0.251 to 1 nM | 1.26 to 3.98 nM | 0.251 to 1 nM | COc1cc(N2CCN(C(C)C)CC2)c(C)cc1Nc1nc(Nc2cc(F)cc(F)c2C(N)=O)c2cc[nH]c2n1 [Example 91, 2,4-difluoro-6-[(2-{[5-methyl-4-[4-(1-methylethyl)-1-piperazinyl]-2-(methyloxy)phenyl]amino}-1H-pyrrolo[2,3-d]pyrimidin-4-yl)amino]benzamide]
0.251 to 1 nM | 0.251 to 1 nM | 0.251 to 1 nM | CCCN1CCC(c2ccc(Nc3nc(Nc4cc(F)cc(F)c4C(N)=O)c4cc[nH]c4n3)c(OC)c2)CC1 [Example 92, 2,4-difluoro-6-[(2-{[2-(methyloxy)-4-(1-propyl-4-piperidinyl)phenyl]amino}-1H-pyrrolo[2,3-d]pyrimidin-4-yl)amino]benzamide]
0.251 to 1 nM | 0.251 to 1 nM | 1.26 to 3.98 nM | COc1ccc(OC[C@@H](O)CN2CCCC2)cc1Nc1nc(Nc2cc(F)c(F)cc2C(N)=O)c2cc[nH]c2n1 [Example 107, 4,5-difluoro-2-[(2-{[5-{[(2S)-2-hydroxy-3-(1-pyrrolidinyl)propyl]oxy}-2-(methyloxy)phenyl]amino}-1H-pyrrolo[2,3-d]pyrimidin-4-yl)amino]benzamide]
5.01 to 200 nM | 5.01 to 158 nM | 5.01 to 200 nM | COc1cc2c(cc1Nc1nc(Nc3cccc(F)c3C(N)=O)c3cc[nH]c3n1)N(CCN(C)C)CC2 [Example 117, 2-[(2-{[1-[2-(dimethylamino)ethyl]-5-(methyloxy)-2,3-dihydro-1H-indol-6-yl]amino}-1H-pyrrolo[2,3-d]pyrimidin-4-yl)amino]-6-fluorobenzamide]
5.01 to 200 nM | 5.01 to 158 nM | 5.01 to 200 nM | COc1cc2c(cc1Nc1nc(Nc3cccc(F)c3C(N)=O)c3cc[nH]c3n1)N(C(=O)CCN(C)C)CC2 [Example 118, 2-[(2-{[1-(N,N-dimethyl-b-alanyl)-5-(methyloxy)-2,3-dihydro-1H-indol-6-yl]amino}-1H-pyrrolo[2,3-d]pyrimidin-4-yl)amino]-6-fluorobenzamide]
0.251 to 1 nM | 0.251 to 1 nM | 1.26 to 3.98 nM | COc1cc2c(cc1Nc1nc(Nc3cc(Cl)cc(F)c3C(N)=O)c3cc[nH]c3n1)N(C(=O)CN(C)C)CC2 [Example 119, 4-chloro-2-[(2-{[1-(N,N-dimethylglycyl)-5-(methyloxy)-2,3-dihydro-1H-indol-6-yl]amino}-1H-pyrrolo[2,3-d]pyrimidin-4-yl)amino]-6-fluorobenzamide]
5.01 to 200 nM | 1.26 to 3.98 nM | 1.26 to 3.98 nM | COc1cc2c(cc1Nc1nc(Nc3cccc(F)c3C(N)=O)c3cc[nH]c3n1)CN(C)CC2 [Example 121, 2-fluoro-6-[(2-{[2-methyl-6-(methyloxy)-1,2,3,4-tetrahydro-7-isoquinolinyl]amino}-1H-pyrrolo[2,3-d]pyrimidin-4-yl)amino]benzamide]
5.01 to 200 nM | 1.26 to 3.98 nM | 5.01 to 200 nM | CCCN1CCC(N2CCc3cc(OC)c(Nc4nc(Nc5cccc(F)c5C(N)=O)c5cc[nH]c5n4)cc3C2)CC1 [Example 122, 2-fluoro-6-[(2-{[6-(methyloxy)-2-(1-propyl-4-piperidinyl)-1,2,3,4-tetrahydro-7-isoquinolinyl]amino}-1H-pyrrolo[2,3-d]pyrimidin-4-yl)amino]benzamide]
5.01 to 200 nM |  | 5.01 to 200 nM | COc1cc2c(cc1Nc1nc(Nc3cc(F)cc(F)c3C(N)=O)c3cc[nH]c3n1)NCCC2 [Example 220, 2,4-difluoro-6-[(2-{[6-(methyloxy)-1,2,3,4-tetrahydro-7-quinolinyl]amino}-1H-pyrrolo[2,3-d]pyrimidin-4-yl)amino]benzamide]
5.01 to 200 nM |  | 5.01 to 200 nM | CNC(=O)c1c(F)cccc1Nc1nc(Nc2cc3c(cc2OC)CCC(=O)N3)nc2[nH]ccc12 [Example 222, 2-fluoro-N-methyl-6-[(2-{[6-(methyloxy)-2-oxo-1,2,3,4-tetrahydro-7-quinolinyl]amino}-1H-pyrrolo[2,3-d]pyrimidin-4-yl)amino]benzamide]
